From patent publication US5610195A, “Ornithine decarboxylase inhibiting branched aminooxy amino alkane derivatives” (Ciba-Geigy Corporation, priority 1993, dated 1997)
Where a name gives a salt, the structure may show the parent alone. Read-outs that look alike come from different tables or passages of the source.

Experiments:
[1] = cited: Eloranta et al., Life Chemistry Reports 9, 163-169 (1991); cited from earlier work
DAO from pig kidney = molecular target: T1, DAO from pig kidney (Sus scrofa, UniProt Q9TRC7); assay: selectivity: inhibition of diamine oxidase (14C-putrescine assay) relative to ODC; assay type: biochemical; conditions: ODC from rat liver
T1 construct: DAO from pig kidney; purchased Sigma Chemie, Deisenhofen, Germany; host or cells: pig kidney
T1 sequence (Q9TRC7 25-755): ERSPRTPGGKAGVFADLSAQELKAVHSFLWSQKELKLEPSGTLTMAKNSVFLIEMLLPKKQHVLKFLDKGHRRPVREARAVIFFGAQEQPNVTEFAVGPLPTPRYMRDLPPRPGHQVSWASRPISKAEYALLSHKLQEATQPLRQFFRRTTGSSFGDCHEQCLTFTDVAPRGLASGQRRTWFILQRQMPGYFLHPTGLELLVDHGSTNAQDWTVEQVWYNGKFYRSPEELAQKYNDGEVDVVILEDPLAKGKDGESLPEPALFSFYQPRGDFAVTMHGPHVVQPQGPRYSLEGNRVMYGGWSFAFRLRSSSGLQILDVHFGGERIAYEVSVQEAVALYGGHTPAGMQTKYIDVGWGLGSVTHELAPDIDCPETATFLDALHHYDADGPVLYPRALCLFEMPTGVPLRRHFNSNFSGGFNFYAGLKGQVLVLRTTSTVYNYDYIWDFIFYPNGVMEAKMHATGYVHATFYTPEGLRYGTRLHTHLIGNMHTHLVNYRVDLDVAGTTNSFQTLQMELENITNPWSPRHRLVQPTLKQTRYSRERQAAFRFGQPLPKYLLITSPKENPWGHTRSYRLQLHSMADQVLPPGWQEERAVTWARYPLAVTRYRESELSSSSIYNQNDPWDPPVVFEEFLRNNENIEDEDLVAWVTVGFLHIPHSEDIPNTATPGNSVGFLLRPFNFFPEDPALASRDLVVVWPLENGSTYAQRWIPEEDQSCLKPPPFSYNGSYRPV
Description: Briefly, the batch contains (expressed as the final concentrations) 0.1M potassium phosphate buffer pH 7.4; 10 mM mercaptoethanol, 0.40 mM putrescine, including 40 nCi [1,4-^14 C]putrescine (Amersham, 110 Ci/mole) and variable amounts of enzyme protein (DAO) and inhibitor. For standard experiments, the batches are incubated for 30 minutes at 37° C. and then transferred to an ice-bath. The reaction is stopped by addition of 0.5 ml of ice-cold 1M Na2 CO3 solution which contains 1 mM aminoguanidine. After addition of 4 ml of toluene with 5 g/l of PPO (2,5-diphenyloxazole), the test tube is continuously inverted around the transverse axis at room temperature for 10 minutes, for mixing, and is then centrifuged at 1800×g in a centrifugal rotor at 4° C. for 5 minutes and finally frozen in ethanol/dry ice. […] After a total of 3 extractions, the combined toluene extracts (which contain the radiolabelled 1-pyrroline to the extent that it has been liberated from putrescine by the action of the DAO) are measured in a liquid scintillation counter (Rack Beta 1215, LKB-Wallac). For calculation of the radioactivity employed, an aliquot of the aqueous phase after 3 extractions is transferred to Whatman GF/C filter (glass fibre filter, Whatman, USA), dried in vacuo and, after addition of 5 ml of toluene/PPO, is counted. […]

diamine oxidase (DAO) = conditions: known compound, state of the art; cited from earlier work
ODC = conditions: known compound, state of the art; cited from earlier work
[2] = system: human T24 bladder carcinoma cells; assay: inhibition of growth of human T24 bladder carcinoma cells (methylene blue staining); assay type: cell-based; conditions: 120 h, read-out: T24 inhibition IC50
Description: The carcinoma cells (1000-1500) are transinoculated into 96-well microtitre plates and incubated overnight under the conditions mentioned. The test substance is added in serial dilutions on day 1. The plates are incubated under the conditions mentioned for 5 days. […] After the incubation, the cells are fixed with 3.3% (weight/volume=w/v) aqueous glutaraldehyde solution, washed with water and stained with 0.05% (w/v) aqueous methylene blue solution. After washing, the dye is eluted with 3% (w/v) aqueous hydrochloric acid. Thereafter, the optical density (OD) per depression, which is directly proportional to the number of cells, is measured with a photometer (Titertek multiskan) at 665 nm. The IC50 values are calculated with a computer system using the formula [formula]

ODC from the rat liver = molecular target: T2, ODC from the rat liver (Rattus norvegicus, UniProt P09057); assay: inhibition of ornithine decarboxylase (Seely and Pegg method, ODC from rat liver); assay type: biochemical
T2 sequence (P09057 1-461): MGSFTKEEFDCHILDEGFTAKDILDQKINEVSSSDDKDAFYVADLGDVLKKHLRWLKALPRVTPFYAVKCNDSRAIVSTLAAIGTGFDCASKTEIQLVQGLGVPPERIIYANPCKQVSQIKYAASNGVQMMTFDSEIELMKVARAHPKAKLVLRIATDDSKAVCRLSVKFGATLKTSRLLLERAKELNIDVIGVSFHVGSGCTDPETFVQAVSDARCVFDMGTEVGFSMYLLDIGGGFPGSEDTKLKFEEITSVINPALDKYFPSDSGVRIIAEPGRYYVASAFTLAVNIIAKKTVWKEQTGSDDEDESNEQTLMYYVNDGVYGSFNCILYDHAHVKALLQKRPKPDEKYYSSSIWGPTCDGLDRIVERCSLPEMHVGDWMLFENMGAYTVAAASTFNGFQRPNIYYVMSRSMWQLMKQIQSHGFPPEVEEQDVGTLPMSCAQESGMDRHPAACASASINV
Description: White-Tabor (editors): Methods in Enzymology, Volume 94: Polyamines, Academic Press, New York 1983. If ODC from the rat liver is used in this test (isolation: Hayashi, S. I. and Kameji, T., same volume, pages 154-158), IC50 values in the micromolar range down to about 0.01 μM, preferably between about 0.01 and 1 μM, for example between 0.014 and 0.7 μM, are obtained for compounds of the formula I. IC50 is the concentration of the inhibitor at which the ODC activity is 50% of a control without inhibitor.
The following results were obtained for inhibition of ODC from the rat liver (see above, Seely and Pegg and Hayashi and Kameji) with determination of the IC50 and for inhibition of the tumour growth of T24 bladder carcinoma cells (described above) with determination of the IC50 : […]

[3] = human T24 bladder carcinoma cells, 5 days

Q: With NCCCON [APA, 1-aminooxy-3-aminopropane] as the compound, how does the “activity in whole animals” value [1] read?
A: practically no action in whole animal tests

Q: And the “quotient of IC50 (DAO)/IC50 (ODC)” value (DAO from pig kidney)?
A: about 1.2

Q: What about the “selectivity with respect to diamine oxidase (in words)” value (diamine oxidase (DAO)) of the same compound?
A: not selective with respect to diamine oxidase

Q: And the “inhibition of ODC (in words)” value (ODC)?
A: potent inhibitor of ODC

Q: With C[C@H](N)CCON [Example 1, (2S)-4-Aminooxy-2-butylamine dihydrochloride] as the compound, how does the IC50 [2, 3] read?
A: 8100 nM

Q: And the IC50 (ODC from the rat liver)?
A: 88 nM

Q: Which IC50 [2, 3] does the source give for C[C@@H](N)CCON [Example 2, (2R)-4-Aminooxy-2-butylamine dihydrochloride] here?
A: 5490 nM

Q: What about the IC50 (ODC from the rat liver) of the same compound?
A: 27 nM

Q: For CC(N)CCON (centres unmarked) [Example 3, 4-Aminooxy-2-butylamine dihydrochloride], which IC50 [2, 3] is on record?
A: 3760 nM

Q: And the IC50 (ODC from the rat liver)?
A: 19 nM

Q: Which IC50 (ODC from the rat liver) does the source give for CCC(N)CCON (centres unmarked) [Example 4, 1-aminooxy-3-pentylamine dihydrochloride] here?
A: 360 nM

Q: With CC(C)(N)CCON [Example 5, 4-Aminooxy-2-methyl-2-butylamine dihydrochloride] as the compound, how does the IC50 (ODC from the rat liver) read?
A: 300 nM

Q: Which IC50 (ODC from the rat liver) does the source give for NOCC[C@H](N)CO [Example 6, (2S)-4-Aminooxy-1-hydroxy-2-butylamine sulfate] here?
A: 440 nM

Q: Which IC50 ([2]; Homo sapiens) does the source give for CC(CN)CON (centres unmarked) [Example 7, 3-Aminooxy-2-methyl-1-propylamine sulfate] here?
A: 2740 nM

Q: And the IC50 (ODC from the rat liver)?
A: 27 nM

Q: Which IC50 (ODC from the rat liver) does the source give for CC(CCN)ON (centres unmarked) [Example 9, 3-Aminooxy-1-butylamine dihydrochloride] here?
A: 410 nM

Q: With CC(N)C(C)CON (centres unmarked) [Example 10, 4-Aminooxy-3-methyl-2-butylamine sulfate] as the compound, how does the IC50 (ODC from the rat liver) read?
A: 320 nM
